The values that follow come from patent US7807162B2, “Single domain VHH antibodies against von Willebrand factor” (Ablynx N.V., priority 2005, dated 2010).

The test system of data set [1] is ADAMTS-13. The experiment in a line: Cleavage of recombinant A1-A2-A3 vWF fragment by ADAMTS-13 (Western Blot). The class given is biochemical, human. The settings on record: control; EDTA in NPP. How it is done:
In a second type of experiment, different reaction mixtures were prepared as summarized in table 60, however, without the addition of the A1A2A3 construct. The A1A2A3 construct is a recombinant fragment consisting out of the A1, A2 and A3 domain of vWF. Mixtures were pre-incubated for 5 minutes at 37° C. after which the A1A2A3 fragment is added and the mixture is incubated in a waterbath overnight at 37° C. […] The blot was blocked for 2 hours at room temperature with blockbuffer (1:1 Odyssey blockbuffer in 1×TBS pH=7.4) and incubated with Rabbit polyclonal anti-vWF (DAKO). Alexa Fluor 680 goat anti-rabbit was used for detection. Scanning was done on the ODYSSEY to detect the degradation products.
In a second assay, a recombinant fragment containing the A1-A2-A3 domain of vWF was mixed with normal pool plasma (NPP) containing ADAMTS-13, resulting in proteolytic cleavage of the fragment which was observed by a Western Blot analysis.
(Immunoblotting shows a protein as a band on a membrane.)

The test system of data set [2] is cyclic flow reductions (CFRs) in injured, stenosed femoral artery. The experiment in a line: Folts thrombosis model in baboons: length/inhibition of cyclic flow reductions (CFRs). The class given is in vivo, baboon (Papio ursinus). As to conditions: for effective dose: Folts model. The method, then: The study protocol that was applied is the original Folts model and some modifications described below (Folts J D, et al, Circulation. 1976; 54:365-370). Healthy male or female baboons (Papio ursinus) were used. The animals were 8-17 kg of weight and were disease-free for at least 2 weeks prior to use. The baboons were fed with dry standard food only. The baboons were used at different time points. […] Animals were anaesthetized and body temperature is maintained at 37° C. with a heating table. A segment of a femoral artery was dissected free from surrounding tissue. A shunt was placed between the femoral vein and femoral artery to obtain high shear rates. The mean and phasic blood flow was recorded continuously throughout the experiment. Baseline flow was recorded for 20 minutes. […] A clamp was placed over the injured site to create an external stenosis. A gradual decline in blood flow due to platelet adhesion and aggregation was observed. When flow was reduced to zero, blood flow was restored by opening the clamp to dislodge the platelet-rich thrombus. This repetitive pattern of decreasing blood flow following mechanical restoration is referred to as cyclic flow reductions (CFRs). Additional endothelial injury was repeated if needed to finally obtain stable CFRs in these baboons. The number of times the thrombus needed to be dislodged determines the number of CFRs. FIG. 24 illustrates blood flow pattern during the Folts model in baboons. […] This procedure was repeated for several times with escalating doses of the test substance. The anti-thrombotic effect was quantified by comparing the length of CFRs before and after drug administration. When full inhibition of CFRs was observed, a new injury was applied in order to confirm that the inhibition was an effect of the treatment but not of a natural healing phenomenon.

Data set [3] shares this test system. The experiment in a line: Folts model in baboons: Aspegic-Heparin-Plavix combination with ALX-0081 on top. As to conditions: combined with 5 mg/kg Aspirin and 60 IU/kg Heparin. In kind it is in vivo, baboon (Papio ursinus). How it is done: Extra Heparin was administered at different time points to sustain a certain level (aPTT should be at least doubled versus control). […] The anti-thrombotic effect was quantified by comparing the length of CFRs before and after drug administration. When full inhibition of CFRs was observed, a new injury was applied. Epinephrin was injected and continued till the end of the experiment. […] (1), 3, 10 or 30 μg/kg. […] The specifications of the baboons that were used in this study are represented in table 49.

Data set [4] is described as follows: Bleeding analysis in Folts baboons (blood loss in gauzes).
Procedure: To analyze bleeding, an incision was made with a scalpel in the groin. This was done at 15 minutes after recording baseline flow, when the injury was made in the artery. Gauzes were inserted in the wound and replaced every 30 minutes just before each new dose of test compound. The amount of blood loss after each dose of test compound was determined by weighing the gauzes.
Data set [5] has as its system ristocetin-induced platelet aggregation. The experiment in a line: Ristocetin-induced platelet aggregation (RIPA) ex vivo in blood of treated baboons. The settings on record: baboons 4-10; further +1 mg/kg Plavix on top of 5 mg/kg Aspegic + 60 IU/kg Heparin + 1 mg/kg Plavix.
Procedure: Platelet aggregations were performed on a Chronolog whole blood and optical Aggregometer (Model 560CA, Chronolog, USA). PRP was prepared (collected on 0.38 mol/L citrate), by centrifuging the whole blood at 1200 rpm for 5 minutes. The upper fraction containing the PRP was carefully removed. The lower fraction was further centrifuged at 3000 rpm for 10 minutes to prepare platelet poor plasma (PPP). Platelets were counted in PRP and diluted in PPP to a final concentration of 200.000 platelets per microliter. 3 mg/ml ristocetin (DAKO) was added and aggregation was measured.
The GPIb-IX-V dependent platelet aggregation through vWF is measured using ristocetin as a modulator. The % aggregation is measured at each time point and at each dose.
The nature of data set [6]: PT during the Folts model. The class given is in vivo, baboon (Papio ursinus). The settings on record: 240 IU/kg dose.
On the set-up of data set [7]: species or system baboon (Papio ursinus). As to conditions: in vivo. The method, then:
The aPTT values observed during the Folts model studies are summarized. […] In these animals, aPTT values are prolonged from the 30-60 IU/kg dose on, as is also observed in patients. Heparin acts as an anticoagulant by forming a complex with antithrombin and catalyzing the inhibition of activated blood coagulation factors such as XIa, IXa, Xa and thrombin (factor IIa). These factors are all involved in the intrinsic coagulation cascade of which its functionality is measured in the aPTT test.

[8] abbreviates: Plavix final dose 2.5 mg/kg, individual baboons 9-12, 2.5 mg/kg.
[9] abbreviates: new injury applied at full inhibition of CFRs.
The mark [10] stands for this setting: number of experiments with inhibition / total number of independent repeats.

Several values for one entry are separate records, joined by “and”; a condition that tells them apart may be missing. Equal entries are not always repeated.

For `O=C(O)CN(CCN(CC(=O)O)CC(=O)O)CC(=O)O` [EDTA], in data set [1], the “effect on the cleavage of the A1-A2-A3 vWF fragment by ADAMTS-13” value is listed as “inhibition of cleavage of the fragment”.
With `COC(=O)[C@H](c1ccccc1Cl)N1CCc2sccc2C1` [Plavix], the “time after injection at which the inhibitory effect on CFR length started” value in data set [2] (2.5 mg/kg final dose) was 10 min. Further, the effective dose in data set [2] and in data set [2] (inhibition of CFRs) was 5 mg/kg in each case. Also, the “Length of CFRs” value in data set [2] (Plavix final dose 1 mg/kg, individual baboons 9, 11, 12, 1 mg/kg) is 189 s and 132 s and 179 s; in data set [2] (setting [8]), 883 s and 400 s and 258 s and >1800 s; in data set [2] (Plavix final dose 5 mg/kg, individual baboons 9-12) it was >1800 s; in data set [2] (Plavix final dose 10 mg/kg, individual baboons 9-12), >1800 s; in data set [2] (Plavix final dose 20 mg/kg, individual baboons 9-12), >1800 s; in data set [2] (Plavix-treated, after Epinephrin, individual baboons 9-12), 241 s and 91 s and 83 s and 66 s. Besides, the “final dose at which full inhibition of CFRs was obtained” value in data set [2] (baboon 12) was found to be 2.5 mg/kg; in data set [2] (the other three baboons) it was 5 mg/kg. In data set [2] (setting [9]), the “CFRs upon a new injury” value was “CFRs remained inhibited”. Further, the “Inhibition of CFRs” value in data set [2] (setting [10]) is 4/4. The “Inhibition of CFRs after administration of Epinephrin” value in data set [2] (setting [10]) is 0/4. For the same compound, the “Inhibition of CFRs after new injury” value in data set [2] (setting [10]) is 4/4. In addition, in data set [3], the “dose of Plavix required for full inhibition, fold lower than Plavix alone” value worked out at 2.5 fold. Also, the “Blood loss relative to the second control gauze, Average” value in data set [4] (Plavix final dose 1 mg/kg) came out at 1.4; in data set [4] (Plavix final dose 2.5 mg/kg), 1.2; in data set [4] (Plavix final dose 5 mg/kg) it was 4.5; in data set [4] (Plavix final dose 10 mg/kg) it was 7.6; in data set [4] (Plavix final dose 20 mg/kg), 4.9. Besides, the “Blood loss relative to the second control gauze” value was 0.6 and 1.3 and 1.6 and 1.2 in data set [4] (Plavix final dose 1 mg/kg, individual baboons 9-12, 1 mg/kg); 1.5 and 1.4 and 1.1 and 1.0 in data set [4] (setting [8]); 5.1 and 4.7 and 1.4 and 6.6 in data set [4] (Plavix final dose 5 mg/kg, individual baboons 9-12, 5 mg/kg); 6.5 and 4.5 and 5.8 and 13.6 in data set [4] (Plavix final dose 10 mg/kg, individual baboons 9-12, 10 mg/kg); 3.7 and 4.1 and 9.1 and 2.6 in data set [4] (Plavix final dose 20 mg/kg, individual baboons 9-12, 20 mg/kg); “up to 9 fold” in data set [4] (at the highest dose). For the same compound, in data set [4] (antithrombotic effect versus blood loss), the “therapeutic window in the Folts model” value is recorded as “much more narrow”. The “Average of total blood loss” value in data set [4] (sum of blood loss from the first five doses of test compound, relative to the second control gauze) worked out at 19.4. The “% ristocetin-induced platelet aggregation” value in data set [5] is 42% and 63% and 66% and 83% and 59% and 76% and 60%.
Take Heparin: the “Length of CFRs” value in data set [2] (Heparin final dose 15 IU/kg, individual baboons 6, 7, 8) was 630 s and 208 s and 255 s; in data set [2] (Heparin final dose 30 IU/kg, individual baboons 6, 7, 8) it was 355 s and 241 s and 320 s; in data set [2] (Heparin final dose 60 IU/kg, individual baboons 6, 7, 8) it was 432 s and 246 s and 332 s; in data set [2] (Heparin final dose 120 IU/kg, individual baboons 6, 7, 8), 610 s and 160 s and 206 s; in data set [2] (Heparin final dose 240 IU/kg, individual baboons 6, 7, 8), >1800 s and 221 s and 169 s; in data set [2] (Heparin-treated, after Epinephrin, baboons 6, 7) it was 109 s and 65 s. The “dose at which full inhibition of CFRs was obtained” value in data set [2] (baboon 6, first dose) is 15 IU/kg. The “CFRs upon a new injury” value in data set [2] (baboon 6, highest dose of 240 IU/kg) was “CFRs were inhibited even after a new injury”; in data set [2] (setting [9]), “the CFRs returned each time”. Moreover, the “Inhibition of CFRs” value is listed as “no inhibition of the CFRs could be obtained” in data set [2] (baboons 7 and 8, doses as high as 240 IU/kg); 1/3 in data set [2] (setting [10]). In addition, the “Inhibition of CFRs after administration of Epinephrin” value in data set [2] (setting [10]) is 0/2. Besides, the “Inhibition of CFRs after new injury” value in data set [2] (setting [10]) was 1/3. The “effect on the PT time” value in data set [6] was “minor increase in PT”. Further, the “dose from which aPTT values are prolonged” value in data set [7] is on record as 30-60 IU/kg.
